The conditions of series [1]: review of human studies; cited from earlier work.
In series [2] the test system is SHBG, cortisol binding protein (CBP), ceruloplasmin and HDL-cholesterol. The conditions noted are these: cited from earlier work; for estrogenic effect: in man; for androgenic activity: on the basis of a change in SHBG and HDL cholesterol levels.
In series [3] the test system is ceruloplasmin. As to conditions: FIG. 1 of Ruokonen and Kaar; cited from earlier work.
Series [4] concerns C-reactive protein (CRP). The series is described as follows: CRP in postmenopausal women with type 2 diabetes on estrogen replacement therapy, randomized placebo-controlled trial (Example III). The series is classed as in vivo, human.
The conditions of series [5]: among third-generation OCs; cited from earlier work.

Marks after values point to notes of the source that are not given here.

Take `C#C[C@]1(O)CC[C@H]2[C@@H]3CCC4=CCCC[C@@H]4[C@H]3C(=C)C[C@@]21CC` [desogestrel]: in series [1], the “androgenicity and antiestrogenic potential” value is “minimal amounts of androgenicity and antiestrogenic potential”. In addition, the “androgenicity compared among the three compounds” value in series [2] (desogestrel, levonorgestrel and lynestrenol compared) is on record as “least androgenic”. In addition, in series [2], the estrogenic effect result is given as “no estrogenic effect” and the androgenic activity result is “androgenic activity”. Besides, the “effect on ceruloplasmin concentration” value in series [3] was “does not induce this effect or does so to an insufficient degree”.

`C#C[C@]1(O)C=C[C@H]2[C@@H]3CCC4=CC(=O)CC[C@@H]4[C@H]3CC[C@@]21CC` [gestodene]: the “androgenicity and antiestrogenic potential” value in series [1] was “minimal amounts of androgenicity and antiestrogenic potential”.

With `C#C[C@]1(O)CC[C@H]2[C@@H]3CCC4=CCCC[C@@H]4[C@H]3CC[C@@]21C` [lynestrenol], in series [2], the estrogenic effect entry was “weakly estrogenic” and the androgenic activity entry was “androgenic activity”.

Take `C[C@]12CC[C@@H]3c4ccc(O)cc4CC[C@H]3[C@@H]1CC[C@@H]2O` [17 beta estradiol]: in series [4] (2 mg/d orally for six weeks), the “effect on CRP” value is reported as “induced an increase in CRP”. Further, the “CRP-values, Median” value in series [4] (6 weeks, 2 mg/d orally, p = 0.0027 compared to pretreatment) is recorded as 6.70#; in series [4] (Pretreatment (baseline of the treatment group), postmenopausal women with type 2 diabetes) it was 4.13.

With `C#C[C@]1(OC(C)=O)CC[C@H]2[C@@H]3CCC4=CC(=NO)CC[C@@H]4[C@H]3CC[C@@]21CC` (mixture of isomers) [norgestimate], the “androgenic profile in vitro” value in series [5] is “least androgenic profile”. Further, the “androgenicity and antiestrogenic potential” value in series [1] is “minimal amounts of androgenicity and antiestrogenic potential”.
